ChEMBL document CHEMBL6121004, “Design, synthesis, and biological evaluation of Ponatinib-based N-Phenylpyrimidine-2-amine derivatives as novel fibroblast growth factor receptor 4 (FGFR4) selective inhibitors” (Eur J Med Chem, 2025)
Activity calls are given as the source filed them. No cut-off for these calls is given here.

How the values were obtained:
[1] = Antiproliferative activity against human L02 cells assessed as inhibition of cell proliferation incubated for 72 hrs by MTT assay; format: toxicity, cell-based
Huh-7 [2] = test: Induction of apoptosis in human Huh-7 cells assessed as viable cells at 0.5 uM incubated for 48 hrs by annexin V-FITC/propidium iodide staining based flow cytometry analysis (reference value: 84.91%); format: functional; conditions: read-out: Activity
Huh-7 [3] = test: Induction of apoptosis in human Huh-7 cells assessed as early apoptotic cells at 0.5 uM incubated for 48 hrs by annexin V-FITC/propidium iodide staining based flow cytometry analysis (reference value: 4.59%); format: functional
Huh-7 [4] = test: Induction of apoptosis in human Huh-7 cells assessed as late apoptotic cells at 0.5 uM incubated for 48 hrs by annexin V-FITC/propidium iodide staining based flow cytometry analysis (reference value: 5.20%); format: functional
Huh-7 [5] = test: Induction of apoptosis in human Huh-7 cells assessed as necrotic cells at 0.5 uM incubated for 48 hrs by annexin V-FITC/propidium iodide staining based flow cytometry analysis (reference value: 5.20%); format: functional
Hep 3B2 [6] = test: Induction of apoptosis in human Hep3B cells assessed as viable cells at 0.5 uM incubated for 48 hrs by annexin V-FITC/propidium iodide staining based flow cytometry analysis (reference value: 84.91%); format: functional; conditions: read-out: Activity
Hep 3B2 [7] = test: Induction of apoptosis in human Hep3B cells assessed as early apoptotic cells at 0.5 uM incubated for 48 hrs by annexin V-FITC/propidium iodide staining based flow cytometry analysis (reference value: 4.69%); format: functional
Hep 3B2 [8] = test: Induction of apoptosis in human Hep3B cells assessed as late apoptotic cells at 0.5 uM incubated for 48 hrs by annexin V-FITC/propidium iodide staining based flow cytometry analysis (reference value: 5.20%); format: functional
Hep 3B2 [9] = test: Induction of apoptosis in human Hep3B cells assessed as necrotic cells at 0.5 uM incubated for 48 hrs by annexin V-FITC/propidium iodide staining based flow cytometry analysis (reference value: 5.20%); format: functional
[10] = target: T1, Fibroblast growth factor receptor 1 (Homo sapiens, UniProt P11362); test: Inhibition of FGFR1 (unknown origin) incubated for 15 mins in presence of ATP
Target sequence in this assay (P11362 whole entry): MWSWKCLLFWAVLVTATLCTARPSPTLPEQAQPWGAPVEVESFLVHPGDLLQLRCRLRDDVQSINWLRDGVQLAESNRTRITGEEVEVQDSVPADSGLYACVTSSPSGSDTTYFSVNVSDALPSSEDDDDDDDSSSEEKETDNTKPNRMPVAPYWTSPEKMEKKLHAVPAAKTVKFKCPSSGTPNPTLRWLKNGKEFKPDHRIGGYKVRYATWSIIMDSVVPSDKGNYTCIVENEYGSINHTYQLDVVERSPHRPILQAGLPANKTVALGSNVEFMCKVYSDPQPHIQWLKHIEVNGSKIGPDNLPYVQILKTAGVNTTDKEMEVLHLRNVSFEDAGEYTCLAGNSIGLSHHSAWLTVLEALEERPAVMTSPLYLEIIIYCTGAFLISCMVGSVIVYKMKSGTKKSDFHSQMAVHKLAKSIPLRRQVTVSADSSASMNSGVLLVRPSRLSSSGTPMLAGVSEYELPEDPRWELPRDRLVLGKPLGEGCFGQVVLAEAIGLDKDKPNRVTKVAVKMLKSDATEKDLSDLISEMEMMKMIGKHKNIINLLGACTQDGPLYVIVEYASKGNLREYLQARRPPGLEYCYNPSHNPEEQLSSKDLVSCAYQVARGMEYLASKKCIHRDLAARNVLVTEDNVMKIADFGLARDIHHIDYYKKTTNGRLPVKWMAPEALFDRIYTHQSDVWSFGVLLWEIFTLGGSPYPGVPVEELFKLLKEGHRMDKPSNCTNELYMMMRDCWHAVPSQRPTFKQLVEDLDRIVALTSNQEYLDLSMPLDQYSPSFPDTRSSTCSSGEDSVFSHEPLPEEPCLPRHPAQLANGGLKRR

Hep 3B2 [11] = test: cells; conditions: Homo sapiens, Hep3B, 72 h
Description: Antiproliferative activity against human Hep3B cells assessed as inhibition of cell proliferation incubated for 72 hrs by MTT assay

Huh-7 [12] = test: cells; conditions: Homo sapiens, Huh-7, 72 h
Description: Antiproliferative activity against human Huh-7 cells assessed as inhibition of cell proliferation incubated for 72 hrs by MTT assay

MDA-MB-231 = test: cells; conditions: Homo sapiens, MDA-MB-231, 72 h
Description: Antiproliferative activity against human MDA-MB-231 cells assessed as inhibition of cell proliferation incubated for 72 hrs by MTT assay

[13] = GSH reactivity in potassium phosphate buffer at pH 7.4 assessed as half life at 1 uM measured at 2 to 1440 mins by LC-MS/MS analysis; format: physicochemical; conditions: potassium phosphate buffer with GSH, time 2-1440 min
Huh-7 [14] = test: Antitumor activity against human Huh-7 cells xenografted in nude mouse assessed as tumor growth inhibition at 25 mg/kg, ip administered for 15 days; format: functional; conditions: Huh-7, 360 h, time 15 day, read-out: TGI
[15] = target: Fibroblast growth factor receptor 4 (Homo sapiens) (UniProt P22455); conditions: dose 100.0 nM
Chain of Fibroblast growth factor receptor 4 (Homo sapiens) (P22455 22-802 limits assumed): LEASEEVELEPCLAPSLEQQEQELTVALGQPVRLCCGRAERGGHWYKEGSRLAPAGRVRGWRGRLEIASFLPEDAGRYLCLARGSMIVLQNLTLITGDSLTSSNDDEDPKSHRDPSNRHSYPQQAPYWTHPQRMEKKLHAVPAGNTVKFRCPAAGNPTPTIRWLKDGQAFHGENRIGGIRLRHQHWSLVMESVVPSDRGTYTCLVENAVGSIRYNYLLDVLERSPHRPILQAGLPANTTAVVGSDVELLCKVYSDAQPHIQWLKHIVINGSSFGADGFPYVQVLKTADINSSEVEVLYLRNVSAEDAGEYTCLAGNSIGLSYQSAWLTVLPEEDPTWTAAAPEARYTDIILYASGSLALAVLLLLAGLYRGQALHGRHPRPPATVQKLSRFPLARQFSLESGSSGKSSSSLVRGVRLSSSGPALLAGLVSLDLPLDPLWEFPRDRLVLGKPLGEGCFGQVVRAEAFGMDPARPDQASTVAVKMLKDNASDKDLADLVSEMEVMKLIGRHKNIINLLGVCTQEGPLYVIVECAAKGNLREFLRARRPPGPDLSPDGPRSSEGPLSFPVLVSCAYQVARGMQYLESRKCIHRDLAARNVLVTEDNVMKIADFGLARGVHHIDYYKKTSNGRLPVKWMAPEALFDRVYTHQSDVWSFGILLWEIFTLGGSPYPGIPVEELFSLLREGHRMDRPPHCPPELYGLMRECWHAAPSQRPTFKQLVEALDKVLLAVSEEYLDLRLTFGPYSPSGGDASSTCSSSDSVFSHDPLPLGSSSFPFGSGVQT
Description: Inhibition of FGFR4 (unknown origin) at 100 nM incubated for 15 mins in presence of ATP relative to control

[16] = target: Fibroblast growth factor receptor 4 (Homo sapiens) (UniProt P22455); conditions: dose 10.0 nM
Description: Inhibition of FGFR4 (unknown origin) at 10 nM incubated for 15 mins in presence of ATP relative to control

[17] = target: T1, Fibroblast growth factor receptor 1; conditions: dose 100.0 nM
Target sequence in this assay (P11362 22-822 limits assumed): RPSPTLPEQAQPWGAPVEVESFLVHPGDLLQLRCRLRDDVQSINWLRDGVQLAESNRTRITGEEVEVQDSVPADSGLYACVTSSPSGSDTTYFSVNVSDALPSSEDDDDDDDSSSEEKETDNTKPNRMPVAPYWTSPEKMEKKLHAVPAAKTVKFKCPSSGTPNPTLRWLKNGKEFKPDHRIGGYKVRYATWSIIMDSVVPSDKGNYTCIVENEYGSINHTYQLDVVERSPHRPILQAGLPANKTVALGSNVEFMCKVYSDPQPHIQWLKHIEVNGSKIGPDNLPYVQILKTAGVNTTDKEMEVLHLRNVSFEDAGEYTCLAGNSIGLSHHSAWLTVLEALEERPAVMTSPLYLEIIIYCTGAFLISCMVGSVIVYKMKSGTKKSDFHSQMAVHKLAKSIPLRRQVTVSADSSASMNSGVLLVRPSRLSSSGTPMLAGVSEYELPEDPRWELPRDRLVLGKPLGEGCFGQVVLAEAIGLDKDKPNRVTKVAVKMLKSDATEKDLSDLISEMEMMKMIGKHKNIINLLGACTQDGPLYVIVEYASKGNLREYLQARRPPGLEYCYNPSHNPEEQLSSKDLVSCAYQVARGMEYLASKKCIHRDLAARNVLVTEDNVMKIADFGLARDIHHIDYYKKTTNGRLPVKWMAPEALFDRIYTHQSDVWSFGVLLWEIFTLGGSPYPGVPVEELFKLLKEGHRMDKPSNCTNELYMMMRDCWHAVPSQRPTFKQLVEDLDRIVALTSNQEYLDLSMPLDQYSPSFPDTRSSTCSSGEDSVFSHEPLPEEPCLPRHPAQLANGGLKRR
Description: Inhibition of FGFR1 (unknown origin) at 100 nM incubated for 15 mins in presence of ATP relative to control

[18] = target: T1, Fibroblast growth factor receptor 1; conditions: dose 10.0 nM
Target sequence in this assay (P11362 22-822 limits assumed): as above
Description: Inhibition of FGFR1 (unknown origin) at 10 nM incubated for 15 mins in presence of ATP relative to control

## Cc1ccc(C(=O)Nc2ccc(CN3CCN(C)CC3)c(C(F)(F)F)c2)cc1C#Cc1cnc2cccnn12 [PONATINIB]
[1]
  IC50 at 72 h: 180 nM
Huh-7 [2]
  viability at 0.5 µM: 75.5%
Huh-7 [3]
  Activity: 2.74%
Huh-7 [4]
  Activity: 18.5%
Huh-7 [5]
  Activity: 3.28%
Hep 3B2 [6]
  viability at 0.5 µM: 68%
Hep 3B2 [7]
  Activity: 5.14%
Hep 3B2 [8]
  Activity: 20.3%
Hep 3B2 [9]
  Activity: 6.56%

## C=CC(=O)Nc1cccc(Cl)c1Nc1ncc(C#Cc2cc(C(=O)Nc3ccc(CN4CCN(C)CC4)c(C(F)(F)F)c3)ccc2C)cn1
[10]
  IC50: > 500 nM
[1]
  IC50 at 72 h: > 10000 nM
Hep 3B2 [11]
  IC50: 870 nM
Huh-7 [12]
  IC50: 410 nM
MDA-MB-231
  IC50: 4010 nM

## C=CC(=O)Nc1cccc(C)c1Nc1ncc2cc(-c3c(Cl)c(OC)cc(OC)c3Cl)ccc2n1
[10]
  IC50: 559 nM
[1]
  IC50 at 72 h: > 10000 nM
[13]
  half-life at 1 µM: 60.1 min
Huh-7 [14]
  inhibition in vivo at 25 mg/kg: 61.8%
Hep 3B2 [11]
  IC50: 810 nM
Huh-7 [12]
  IC50: 490 nM
MDA-MB-231
  IC50: 4260 nM

## Cc1ccc(C(=O)Nc2ccc(CN3CCN(C)CC3)c(C(F)(F)F)c2)cc1C#Cc1cnc(Nc2c(C)cccc2NC(=O)/C=C/CN(C)C)nc1
[10]
  IC50: 863 nM
[1]
  IC50 at 72 h: > 10000 nM
Hep 3B2 [11]
  IC50: 920 nM
Huh-7 [12]
  IC50: 1620 nM
MDA-MB-231
  IC50: 1250 nM

## Cc1ccc(C(=O)Nc2ccc(C(=O)N3CCN(C)CC3)c(C(F)(F)F)c2)cc1C#Cc1cnc(Nc2c(C)cccc2NC(=O)/C=C/CN(C)C)nc1
[15]
  inhibition: inactive
[16]
  inhibition: inactive
[17]
  inhibition: inactive
[18]
  inhibition: 2.2%

## C/C=C/C(=O)Nc1cccc(C)c1Nc1ncc(C#Cc2cc(C(=O)Nc3ccc(CN4CCN(C)CC4)c(C(F)(F)F)c3)ccc2C)cn1
[17]
  inhibition: inactive
[18]
  inhibition: inactive

## Cc1ccc(C(=O)Nc2ccc(CN3CCN(C)CC3)c(C(F)(F)F)c2)cc1C#Cc1cnc(Nc2c(C)cccc2NC(=O)CCl)nc1
[17]
  inhibition: inactive
[18]
  inhibition: 0.2%

## C=CC(=O)Nc1cccc(C)c1Nc1ncc(C#Cc2cc(C(=O)Nc3ccc(CN4CCN(C)CC4)c(C(F)(F)F)c3)ccc2C)cn1
[1]
  IC50 at 72 h: > 10000 nM
Hep 3B2 [11]
  IC50: 430 nM
Huh-7 [12]
  IC50: 1630 nM
MDA-MB-231
  IC50: 4330 nM

## C=CC(=O)Nc1ccccc1Nc1ncc(C#Cc2cc(C(=O)Nc3ccc(CN4CCN(C)CC4)c(C(F)(F)F)c3)ccc2C)cn1
[1]
  IC50 at 72 h: > 10000 nM
Hep 3B2 [11]
  IC50: 770 nM
Huh-7 [12]
  IC50: 680 nM
MDA-MB-231
  IC50: 2240 nM

## C=CC(=O)Nc1cccc(C)c1Nc1ccc(C#Cc2cc(C(=O)Nc3ccc(CN4CCN(C)CC4)c(C(F)(F)F)c3)ccc2C)cn1
[10]
  IC50: > 500 nM
[1]
  IC50 at 72 h: > 10000 nM
Hep 3B2 [11]
  IC50: 660 nM
Huh-7 [12]
  IC50: 520 nM
MDA-MB-231
  IC50: 3530 nM

## CC(C)=CC(=O)Nc1cccc(C)c1Nc1ncc(C#Cc2cccc(C(=O)Nc3ccc(CN4CCN(C)CC4)c(C(F)(F)F)c3)c2)cn1
[15]
  inhibition: < 10%

## CN(C)C/C=C/C(=O)Nc1cc2c(Nc3ccc(F)c(Cl)c3)ncnc2cc1O[C@H]1CCOC1 [AFATINIB]
[13]
  half-life at 1 µM: 30.1 min

## Cc1ccc(C(=O)Nc2ccc(C(=O)N3CCN(C)CC3)c(C)c2)cc1C#Cc1cnc(Nc2c(C)cccc2NC(=O)/C=C/CN(C)C)nc1
[15]
  inhibition: inactive
[16]
  inhibition: inactive
[17]
  inhibition: inactive
[18]
  inhibition: 0.6%

## C=CC(=O)Nc1cccc(C)c1Nc1ncc(C#Cc2ccc(C)c(C(=O)Nc3ccc(CN4CCN(C)CC4)c(C(F)(F)F)c3)c2)cn1
[17]
  inhibition: inactive
[18]
  inhibition: 0.3%
